Measurements taken from US20220298483A1, “METHOD AND COMPOSITION FOR CHONDROGENESIS” (National Health Research Institutes, priority 2021, published 2022).

Tests used:
[1] = tested on: human MSCs—including iPSC-MSCs, ESC-MSCs and BM-MSCs; test: 3D pellet culture chondrogenesis in complete chondrogenic medium, Alcian Blue staining and GAG quantification; format: cell-based; settings: ChM containing TGFβ3, 10 μM; for pellet condensation / pellet integrity: Day 20, all 3 sources of MSCs
Description: (§1) In vitro chondrogenic differentiation using 3D pellet culture was performed as described previously (Liu et al., 2011; Wang et al., 2018; Yen et al., 2013), 2×10^5 trypsinized were centrifuged 450×g for 10 minutes to form a pellet in expansion medium. After 16 hours, the medium was changed to chondrogenic basal medium (ChBM) consisting of low-glucose DMEM supplemented with 100 units/ml penicillin, 100 μg/ml streptomycin (all from Gibco-Thermo Fisher Scientific), 1% Insulin-transferrin-sodium selenite media supplement (Sigma-Aldrich, St Louis, Mo., USA), 2 mM L-glutamine (Gibco-Thermo Fisher Scientific), 10 μM L-Ascorbic acid 2-phosphate (Sigma-Aldrich), 100 nm dexamethasone (Sigma-Aldrich). Addition of TGFβ1 (10 ng/mL; R&D Systems, Minneapolis, Minn., USA), TGFβ3 (10 ng/mL; R&D Systems), XAV939 (XAV; 10 μM; Sigma-Aldrich) or CHIR99021 (CHIR; 10 μM; Sigma-Aldrich) to ChBM was performed as indicated. Cell pellets were harvested at the indicated day for analysis. Micromass culture-based chondrogenic differentiation was performed as previously reported, using 2×10^7 cells/ml of MSCs suspended in expansion medium and 20-μl drops spotted in the center of each well of a 24-well culture plate (Craft et al., 2015; Greco et al., 2011). After adhesion for 1.5 hour in a humidified incubator at 37° C. with 5% CO2, the medium was changed to ChBM with indicated regulators for chondrogenic induction.
Samples were washed with PBS and fixed with 4% paraformaldehyde, followed by pH 1.0 1% Alcian blue 8GX (Sigma-Aldrich) staining at room temperature overnight to detect sulfated proteoglycan matrix (Lev and Spicer, 1964). Quantification of Alcian blue staining extracted with 6M Guanidine-HCl was measured in 650 nm absorbance (Song et al., 2018). […]

[2] = tested on: pellet-cultured iPSC-MSCs; test: 3D pellet culture chondrogenic differentiation of iPSC-MSCs, Alcian Blue staining and quantification; format: cell-based, human; settings: for pellet condensation and Alcian Blue staining compared to ChBM: ChBM plus modulator (10 ng/mL TGFβ3, 10 μM CHIR or XAV), 20 days (FIG. 3A top); for quantification of GAG production: Day 10, compared to ChBM and to TGFβ3 (FIG. 3A right)
Description: as §1
(§2) Samples were washed with PBS and fixed with 4% paraformaldehyde, followed by pH 1.0 1% Alcian blue 8GX (Sigma-Aldrich) staining at room temperature overnight to detect sulfated proteoglycan matrix (Lev and Spicer, 1964). Quantification of Alcian blue staining extracted with 6M Guanidine-HCl was measured in 650 nm absorbance (Song et al., 2018).

[3] = tested on: micromass-cultured iPSC-MSCs; test: Micromass culture chondrogenic differentiation, Alcian Blue staining and quantification; format: cell-based, human; settings: ChBM plus modulator; for micromass structural condensation and Alcian Blue intensity: Day 10, compared to ChBM and TGFβ3 (FIG. 3B)
Description: as §1, §2

[4] = tested on: iPSC-MSC pellets; test: Quantitative real-time PCR of chondrogenic, osteogenic and Wnt downstream genes; format: cell-based, human; settings: for AXIN2 gene expression: 3 days (FIG. 4C); for COL2A1 gene expression / ACAN gene expression: no TGFβ unless added; for COL2A1 gene expression: Day 3 (FIG. 3C); for ACAN gene expression: Day 3 (FIG. 3D); for collagen 2A1 (COL2A1) gene expression: Day 3 (FIG. 1D); for aggrecan (ACAN) gene expression: Day 3 (FIG. 1E); for RUNX2 mRNA expression compared to ChBM: 10 ng/mL in ChBM, Day 3 (FIG. 2E)
Description: as §1
Total RNA was isolated using TRI® reagent (Sigma-Aldrich), and quantified using NanoDrop spectrophotometer (Nyxor Biotech, Paris, France) (Wang et al., 2013). Reverse transcription was performed using RevertAid H Minus reverse transcriptase (Thermo Fisher Scientific), and PCR was performed on ABI PRISM 7500 system (Applied Biosystem, Foster City, Calif., USA) with SYBR Fast qPCR kit (KAPA Biosystems, Boston, Mass., USA). mRNA expression level was calculated by using the ΔΔCt method, and glyceraldehyde 3-phosphate dehydrogenase (GAPDH) level were used as housekeeping control. The results are normalized to ChBM to represent effects of indicated modulators.

[5] = tested on: β-catenin in iPSC-MSC pellets; test: Immunofluorescent staining and quantification of nuclear β-catenin; format: cell-based, human; settings: ChBM plus modulator, 1 day, compared to ChBM or TGFβ3 (FIG. 4A, 4B)
Description: as §1, with “Micromass culture-based chondrogenic differentiation was performed as previously reported, using 2×10^7 cells/ml of MSCs suspended in expansion medium and 20-μl drops spotted in the center of each well of a 24-well culture plate (Craft et al., 2015; Greco et al., 2011). After adhesion for 1.5 hour in a humidified incubator at 37° C. with 5% CO2, the medium was changed to ChBM with indicated regulators for chondrogenic induction.” left out
(§3) Immunofluorescent staining was performed as previously reported (Wang et al., 2013). […] Fluorescent signals were acquired by confocal microscopy (Leica TCS SP5 II, Wetzlar, Germany) and analyzed by Image J (NIH, Maryland, USA).

[6] = tested on: N-cadherin/β-catenin interactions in micromass cultured iPSC-MSCs; test: Proximity ligation assay (PLA) for N-cadherin-β-catenin interaction; format: cell-based, human; settings: ChBM plus modulator, 1 day (FIG. 5C, 5D)
Description: Micromass cultured iPSC-MSCs were used for PLA and performed according to the manufacturer's protocol (Sigma-Aldrich). Antibodies against N-cadherin (Abcam) and β-catenin (BD Biosciences) were used for recognition. After ligation and amplification, the PLA signals from each pair of probes in close proximity (<40 nm) were visualized by confocal microscope (Leica TCS SP5 II) and signal counts were analyzed by Image J.

[7] = tested on: β-catenin in micromass-cultured iPSC-MSCs; test: Immunofluorescence quantification of β-catenin expression; format: cell-based, human; settings: 1 day (FIG. 8)
Description: Confocal immunofluorescence microscopy and fluorescence quantification of β-catenin in micromass-cultured iPSC-MSCs with the indicated modulators in chondrogenic induction medium for 1 day. Nuclei are labeled by DAPI. Scale bar, 5 μm. ChBM, chondrogenic basal medium without TGFβ. XAV, Wnt/β-catenin antagonist XAV939. CHIR, Wnt/β-catenin agonist CHIR99021. Data are represented as mean±S.D. *, p<0.05, **, p<0.01, ***, p<0.001.
Immunofluorescent staining was performed as previously reported (Wang et al., 2013). Paraformaldehyde-fixed cell samples were permeabilized with 0.1% Triton X-100 and nonspecific binding was blocked by 5% bovine serum albumin Primary antibodies against alpha smooth muscle actin (αSMA) (Sigma-Aldrich), β-catenin (BD Biosciences, San Jose, Calif., USA) or N-cadherin (Abcam, Cambridge, UK) were stained with 1:100 dilution for 24 hours, followed by species specific secondary antibody incubation overnight. Fluorescent signals were acquired by confocal microscopy (Leica TCS SP5 II, Wetzlar, Germany) and analyzed by Image J (NIH, Maryland, USA).

[8] = tested on: N-cadherin in iPSC-MSCs cultured as micromass; test: Immunofluorescent staining of N-cadherin; format: cell-based, human; settings: ChBM plus modulator, 24 hours, compared to all other conditions (FIG. 5A, 5B)
Description: as §1, with “Micromass culture-based chondrogenic differentiation was performed as previously reported, using 2×10^7 cells/ml of MSCs suspended in expansion medium and 20-μl drops spotted in the center of each well of a 24-well culture plate (Craft et al., 2015; Greco et al., 2011). After adhesion for 1.5 hour in a humidified incubator at 37° C. with 5% CO2, the medium was changed to ChBM with indicated regulators for chondrogenic induction.” left out
as §3

[9] = tested on: Mouse BM-MSCs transplanted subcutaneously into wild-type C57BL/6J mice; test: In vivo ectopic chondrogenesis, Alcian Blue staining of transplanted MSC pellets; settings: local injection every 3 days, harvest Day 20 (FIG. 3F)
Description: Samples were washed with PBS and fixed with 4% paraformaldehyde, followed by pH 1.0 1% Alcian blue 8GX (Sigma-Aldrich) staining at room temperature overnight to detect sulfated proteoglycan matrix (Lev and Spicer, 1964). Quantification of Alcian blue staining extracted with 6M Guanidine-HCl was measured in 650 nm absorbance (Song et al., 2018). All animal work was performed according to protocols approved by the Institutional Animal Care and Use Committee. In vivo ectopic chondrogenesis was performed as previously reported with modifications (Zhao et al., 2014). Mouse BM-MSCs were cultured as 3D pellets in ChBM alone or with addition of TGFβ3, CHIR, or XAV for 3 days, then subcutaneously transplanted to dorsal skin of wild-type C57BL/6J mice, with local injections of modulators every 3 days till the pellet sample was harvested at Day 20. Collected samples were then frozen in optimal cutting temperature (OCT) compound and sliced to […] in thickness for histological staining.

[10] = ChBM plus modulator, 3 days (FIG. 4D)

| Molecule | pellet condensation / pellet integrity [1] | pellet condensation and Alcian Blue staining compared to ChBM [2] | quantification of GAG production ([2]; ChBM plus modulator) | micromass structural condensation and Alcian Blue intensity [3] | AXIN2 gene expression ([4]; ChBM plus modulator) | RUNX2 gene expression [4, 10] | COL2A1 gene expression ([4]; ChBM plus modulator) | ACAN gene expression ([4]; ChBM plus modulator) | collagen 2A1 (COL2A1) gene expression ([4]; in ChM) | aggrecan (ACAN) gene expression ([4]; in ChM) | RUNX2 gene expression ([4]; in ChM, Day 3 (FIG. 1F)) | nuclear β-catenin levels [5] | N-cadherin/β-catenin interactions, PLA signals [6] | RUNX2 mRNA expression compared to ChBM [4] | also measured |
| --- | --- | --- | --- | --- | --- | --- | --- | --- | --- | --- | --- | --- | --- | --- | --- |
| Cc1c[nH]c(-c2cnc(NCCNc3ccc(C#N)cn3)nc2-c2ccc(Cl)cc2Cl)n1 [CHIR, CHIR99021] | decreased pellet integrity | did not undergo condensation but became disintegrated | minimal GAG production | minimal evidence of any micromass structure or Alcian Blue staining | strongly increased | strongly increased | minimal expression | minimal expression | significant downregulation | significant downregulation | the opposite effect | dramatically increased | minimal PLA signal detected | – | SOX9 gene expression ([4]; in ChM, Day 3 (FIG. 1C)): significant downregulation; β-catenin expression [7]: strongest expression of β-catenin |
| C=C1[C@@H](C)[C@H]2[C@H](Cc3ccccc3)NC(=O)[C@]23[C@H](OC(C)=O)/C=C/[C@@](C)(O)C(=O)[C@@H](C)C/C=C/[C@H]3[C@@H]1O [CytoD, cytochalasin D] | – | – | – | – | – | – | – | – | – | – | – | – | – | – | pellet condensation / structure and chondrogenic differentiation ([2]; 0.25 μM CytoD, 10 μM XAV, Day 10 (FIG. 5F, 5G)): significantly disrupted the condensation process with the pellets completely disintegrated by Day 10 |
| Oc1nc(-c2ccc(C(F)(F)F)cc2)nc2c1CSCC2 [XAV, XAV939] | increased condensation of the pellets | formed well-condensed spheres and strong Alcian Blue staining | significant increases | better structural condensation and stronger Alcian Blue intensity | significantly decreased | significantly decreased | most significantly upregulated | most significantly upregulated | significant upregulation | significant upregulation | decreased expression | lowest nuclear β-catenin levels | significantly increase | – | quantification of glycosaminoglycans (GAGs), Alcian Blue ([1]; 20 days, compared to ChM (FIG. 1A)): significant increase; GAG production by Alcian Blue staining, XAV versus TGFβ3 ([2]; ChBM plus modulator, Day 10 (FIG. 3A bottom)): more rapidly induced; quantitation of GAG production in micromass culture ([3]; Day 10 (FIG. 3B)): highest production of GAG; N-cadherin expression [8]: strongly and most significantly upregulated; GAG production in in vivo differentiated samples ([9]; 10 μM): highest level of GAG production; GAG production in vivo compared to TGFβ3 agonism [9]: significantly increased |
| TGFβ1: pleomorphic growth factor commonly used to induce MSC chondrogenesis (R&D Systems) | – | – | – | – | – | – | – | – | – | – | – | – | – | significantly upregulated | – |
| TGFβ3: pleomorphic growth factor commonly used to induce MSC chondrogenesis (R&D Systems) (protein, UniProt P10600 301-412, looked up) Transforming growth factor …: ALDTNYCFRNLEENCCVRPLYIDFRQDLGWKWVHEPKGYYANFCSGPCPYLRSADTTHSTVLGLYNTLNPEASASPCCVPQDLEPLTILYYVGRTPKVEQLSNMVVKSCKCS | – | formed well-condensed spheres and strong Alcian Blue staining | – | – | increased expression | increased expression | did not increase expression | did not increase expression | – | – | – | – | – | significantly upregulated | – |
